Patent US20250368625A1, “PIPERAZINES” (Grünenthal GmbH, priority 2024, published 2025)
Read-outs that look alike come from different tables or passages of the source.

Target: T1, human SSTR4 (Homo sapiens, UniProt P31391)
T1 construct: expressed in transfected cells; host or cells: CHO-K1
Assay: hSSTR4 cAMP assay (cAMP accumulation, LANCE Ultra cAMP kit, CHO-K1 human SSTR4 Gi cell line)
Assay type: cell-based
Method: cAMP accumulation assay using a CHO-K1 human SSTR4 Gi cell line.
Quantification of intracellular cAMP was performed using the LANCE Ultra cAMP assay kit from Revvity according to the manufacturer's instructions. CHO-K1 human SSTR4 Gi cell were either seeded in a density of 3K cells per well into a 384 well plate and incubated at 37° C. and 5% CO2 for 18-20 h or a stock of frozen cells were defrosted and seeded in a density of 5K cells per well without any further cultivation directly prior to the assay in a total volume of 5 μL in stimulation buffer. For pre-cultured cells, medium was replaced with 5 μL stimulation buffer before the assay. Cells were then stimulated with forskolin (final concentration 10 μM) and test compound (SSTR4 agonist) in increasing concentrations in duplicates for 30 min at 25° C. After stimulation, cells were lysed by addition of 10 μL of detection buffer (provided with the kit) and cell lysates were further diluted to ensure final cAMP concentrations fitted well into the dynamic range of the test kit. 10 μL of the diluted lysates were then added to respective wells of an OptiPlate-384 microplate. Thereafter, 5 μL of 4× Eu-cAMP tracer working solution was added, followed by addition of 5 μL of ULight-anti-cAMP working solution. The plate was then incubated for 1 h at 25° C. before reading on a TR-FRET microplate instrument. Data were normalized to cAMP high (forskolin only) and low control (forskolin+100 nM SST14) before fitting to a 4-Paramter logistic function.
All data was generated according to the cAMP assay conditions described above in at least duplicate and results are averaged and rounded to two significant figures.

[1] = functional agonism, forskolin 10 μM stimulated CHO-K1 human SSTR4 Gi cells, 30 min at 25° C., at least duplicate, averaged, read-out: hSSTR4 EC50

T1 sequence (P31391 whole entry): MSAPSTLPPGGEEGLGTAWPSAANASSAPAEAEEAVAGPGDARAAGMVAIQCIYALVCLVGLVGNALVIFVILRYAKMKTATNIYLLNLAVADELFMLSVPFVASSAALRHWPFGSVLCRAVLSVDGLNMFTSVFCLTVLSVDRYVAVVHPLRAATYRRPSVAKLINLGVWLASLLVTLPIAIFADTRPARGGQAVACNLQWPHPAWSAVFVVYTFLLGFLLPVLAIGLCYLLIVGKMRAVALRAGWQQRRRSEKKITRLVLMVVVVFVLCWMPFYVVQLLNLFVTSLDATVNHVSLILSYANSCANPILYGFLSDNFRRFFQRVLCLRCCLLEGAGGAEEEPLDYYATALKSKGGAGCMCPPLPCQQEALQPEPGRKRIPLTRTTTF

Question: Cc1cccn2c(C(C)(C)NC(=O)[C@@H]3CN(C4CCC(F)(F)CC4)CCN3)ncc12 [SC-055, (S)-4-(4,4-difluorocyclohexyl)-N-(2-(8-methylimidazo[1,5-a]pyridin-3-yl)propan-2-yl)piperazine-2-carboxamide] was tested. Which EC50 [1] did it give?
Answer: 8400 nM

Question: For CC(C)(NC(=O)[C@@H]1CNCCO1)c1nnc2c(Cl)cccn12, which EC50 (morpholinyl matched molecular pairs (from WO 2016 075240), same cAMP assay conditions, read-out: hSSTR4 EC50 nM (Comparative Example)) is on record?
Answer: > 10000 nM

Question: With CN1CCNC[C@H]1C(=O)NC(C)(C)c1ncc2c(C(F)(F)F)cccn12 [SC-110, (S)-1-methyl-N-(2-(8-(trifluoromethyl)imidazo[1,5-a]pyridin-3-yl)propan-2-yl)piperazine-2-carboxamide] as the compound, how does the EC50 [1] read?
Answer: 36 nM

Question: For Cc1cccn2c(C(C)(C)NC(=O)[C@@H]3CN(C(=O)C4CC4)CCN3)ncc12 [SC-077, (S)-4-(cyclopropanecarbonyl)-N-(2-(8-methylimidazo[1,5-a]pyridin-3-yl)propan-2-yl)piperazine-2-carboxamide], which EC50 [1] is on record?
Answer: > 1000 nM

Question: How did the EC50 [1] turn out when Cc1cccn2c(C(C)(C)NC(=O)C3CNCCN3Cc3ccncn3)ncc12 (racemic) [SC-008, rac-N-(2-(8-methylimidazo[1,5-a]pyridin-3-yl)propan-2-yl)-1-(pyrimidin-4-ylmethyl)piperazine-2-carboxamide] was run?
Answer: 2.9 nM

Question: Cc1cccn2c(C(C)(C)NC(=O)C3CNCCN3Cc3ccccn3)ncc12 (racemic) [SC-003, rac-N-(2-(8-methylimidazo[1,5-a]pyridin-3-yl)propan-2-yl)-1-(pyridin-2-ylmethyl)piperazine-2-carboxamide] was tested. Which EC50 [1] did it give?
Answer: 3.3 nM

Question: With Cc1cccn2c(C(C)(C)NC(=O)[C@@H]3CNCCN3Cc3cnccn3)ncc12 (racemic) [SC-007, rac-N-(2-(8-methylimidazo[1,5-a]pyridin-3-yl)propan-2-yl)-1-(pyrazin-2-ylmethyl)piperazine-2-carboxamide] as the compound, how does the EC50 [1] read?
Answer: 2.2 nM

Question: With Cc1cccn2c(C(C)(C)NC(=O)[C@@H]3CN(Cc4cocn4)CCN3)ncc12 [SC-063, (S)-N-(2-(8-methylimidazo[1,5-a]pyridin-3-yl)propan-2-yl)-4-(oxazol-4-ylmethyl)piperazine-2-carboxamide] as the compound, how does the EC50 [1] read?
Answer: 930 nM

Question: Which EC50 [1] does the source give for Cc1cccn2c(C(C)(C)NC(=O)[C@@H]3CNCCN3CC3CCC3)ncc12 [SC-033, (S)-1-(cyclobutylmethyl)-N-(2-(8-methylimidazo[1,5-a]pyridin-3-yl)propan-2-yl)piperazine-2-carboxamide] here?
Answer: 0.38 nM

Question: Which EC50 [1] does the source give for Cc1cccn2c(C(C)(C)NC(=O)[C@@H]3CN(CC(C)C)CCN3)ncc12 [SC-069, (S)-4-isobutyl-N-(2-(8-methylimidazo[1,5-a]pyridin-3-yl)propan-2-yl)piperazine-2-carboxamide] here?
Answer: 300 nM

Question: With CN1CCN[C@H](C(=O)NC(C)(C)c2nn(C)c3ccccc23)C1 [SC-099, (S)-4-methyl-N-(2-(1-methyl-1H-indazol-3-yl)propan-2-yl)piperazine-2-carboxamide] as the compound, how does the EC50 [1] read?
Answer: 21 nM

Question: With Cc1cccn2c(C(C)(C)NC(=O)[C@@H]3CN(C(=O)c4cnn(C(C)C)c4)CCN3)ncc12 [SC-081, (S)-4-(1-isopropyl-1H-pyrazole-4-carbonyl)-N-(2-(8-methylimidazo[1,5-a]pyridin-3-yl)propan-2-yl)piperazine-2-carboxamide] as the compound, how does the EC50 [1] read?
Answer: > 10000 nM

Question: CC(C)(NC(=O)[C@@H]1CNCCN1CC1CC(F)(F)C1)c1ncc2c(C(F)(F)F)cccn12 [SC-113, (S)-1-((3,3-difluorocyclobutyl)methyl)-N-(2-(8-(trifluoromethyl)imidazo[1,5-a]pyridin-3-yl)propan-2-yl)piperazine-2-carboxamide] was tested. Which EC50 [1] did it give?
Answer: 26 nM

Question: Cc1cccn2c(C(C)(C)NC(=O)[C@@H]3CN(C(=O)c4ccnn4C)CCN3)ncc12 [SC-082, (S)-4-(1-methyl-1H-pyrazole-5-carbonyl)-N-(2-(8-methylimidazo[1,5-a]pyridin-3-yl)propan-2-yl)piperazine-2-carboxamide] was tested. Which EC50 [1] did it give?
Answer: 5400 nM

Question: Cc1cccn2c(C(C)(C)NC(=O)C3CNCCN3C(=O)c3cnn(C)c3)ncc12 (racemic) [SC-010, rac-1-(1-methyl-1H-pyrazole-4-carbonyl)-N-(2-(8-methylimidazo[1,5-a]pyridin-3-yl)propan-2-yl)piperazine-2-carboxamide] was tested. Which EC50 [1] did it give?
Answer: 3500 nM

Question: How did the EC50 [1] turn out when Cc1cccn2c(C(C)(C)NC(=O)[C@@H]3CN(Cc4ccnn4C)CCN3)ncc12 [SC-072, (S)-4-((1-methyl-1H-pyrazol-5-yl)methyl)-N-(2-(8-methylimidazo[1,5-a]pyridin-3-yl)propan-2-yl)piperazine-2-carboxamide] was run?
Answer: 1200 nM

Question: With Cc1cccn2c(C(C)(C)NC(=O)[C@@H]3CNCCN3CC3(C(F)(F)F)CC3)ncc12 [SC-020, (S)-N-(2-(8-methylimidazo[1,5-a]pyridin-3-yl)propan-2-yl)-1-((1-(trifluoromethyl)cyclopropyl)methyl)piperazine-2-carboxamide] as the compound, how does the EC50 [1] read?
Answer: 0.27 nM

Question: With Cc1cccn2c(C(C)(C)NC(=O)[C@@H]3CN(Cc4ncco4)CCN3)ncc12 [SC-065, (S)-N-(2-(8-methylimidazo[1,5-a]pyridin-3-yl)propan-2-yl)-4-(oxazol-2-ylmethyl)piperazine-2-carboxamide] as the compound, how does the EC50 [1] read?
Answer: 1300 nM

Question: With Cc1cccn2c(C(C)(C)NC(=O)[C@@H]3CNCCN3CC3(C)CCC(F)(F)CC3)ncc12 [SC-024, (S)-1-((4,4-difluoro-1-methylcyclohexyl)methyl)-N-(2-(8-methylimidazo[1,5-a]pyridin-3-yl)propan-2-yl)piperazine-2-carboxamide] as the compound, how does the EC50 [1] read?
Answer: 0.46 nM

Question: How did the EC50 [1] turn out when Cc1cccn2c(C(C)(C)NC(=O)[C@@H]3CNCCN3C3CC(F)(F)C3)ncc12 [SC-021, (S)-1-(3,3-difluorocyclobutyl)-N-(2-(8-methylimidazo[1,5-a]pyridin-3-yl)propan-2-yl)piperazine-2-carboxamide] was run?
Answer: 3.1 nM

Question: How did the EC50 [1] turn out when Cc1cccn2c(C(C)(C)NC(=O)[C@@H]3CNCCN3CC(C)C)ncc12 [SC-034, (S)-1-isobutyl-N-(2-(8-methylimidazo[1,5-a]pyridin-3-yl)propan-2-yl)piperazine-2-carboxamide] was run?
Answer: 0.25 nM

Question: With Cc1cccn2c(C(C)(C)NC(=O)[C@@H]3CNCCN3Cc3cnn(C)c3)nc(C)c12 [SC-117, (S)-N-(2-(1,8-dimethylimidazo[1,5-a]pyridin-3-yl)propan-2-yl)-1-((1-methyl-1H-pyrazol-4-yl)methyl)piperazine-2-carboxamide] as the compound, how does the EC50 [1] read?
Answer: 1.6 nM

Question: For COc1cccn2c(C(C)(C)NC(=O)[C@@H]3CNCCN3C)ncc12 [SC-128, (S)-N-(2-(8-methoxyimidazo[1,5-a]pyridin-3-yl)propan-2-yl)-1-methylpiperazine-2-carboxamide], which EC50 [1] is on record?
Answer: 3.8 nM

Question: For Cc1cccn2c(C(C)(C)NC(=O)[C@@H]3CN(Cc4cnco4)CCN3)ncc12 [SC-062, (S)-N-(2-(8-methylimidazo[1,5-a]pyridin-3-yl)propan-2-yl)-4-(oxazol-5-ylmethyl)piperazine-2-carboxamide], which EC50 [1] is on record?
Answer: 220 nM

Question: How did the EC50 [1] turn out when Cc1cccn2c(C(C)(C)NC(=O)[C@@H]3CNCCN3CC(C)(C)O)ncc12 [SC-023, (S)-1-(2-hydroxy-2-methylpropyl)-N-(2-(8-methylimidazo[1,5-a]pyridin-3-yl)propan-2-yl)piperazine-2-carboxamide] was run?
Answer: 9 nM

Question: With Cc1cccn2c(C(C)(C)NC(=O)[C@@H]3CNCCN3C3CCC(F)(F)CC3)ncc12 [SC-032, (S)-1-(4,4-difluorocyclohexyl)-N-(2-(8-methylimidazo[1,5-a]pyridin-3-yl)propan-2-yl)piperazine-2-carboxamide] as the compound, how does the EC50 [1] read?
Answer: 0.23 nM

Question: For Cc1cccn2c(C(C)(C)NC(=O)C3CNCCN3Cc3cccnn3)ncc12 (racemic) [SC-004, rac-N-(2-(8-methylimidazo[1,5-a]pyridin-3-yl)propan-2-yl)-1-(pyridazin-3-ylmethyl)piperazine-2-carboxamide], which EC50 [1] is on record?
Answer: 7.4 nM

Question: With Cc1cccn2c(C(C)(C)NC(=O)C3CNCCN3C(=O)C3CC3)ncc12 (racemic) [SC-012, rac-1-(cyclopropanecarbonyl)-N-(2-(8-methylimidazo[1,5-a]pyridin-3-yl)propan-2-yl)piperazine-2-carboxamide] as the compound, how does the EC50 [1] read?
Answer: 6600 nM

Question: For Cc1cccn2c(C(C)(C)NC(=O)[C@@H]3CN(C(=O)C4CCOCC4)CCN3)ncc12 [SC-078, (S)-N-(2-(8-methylimidazo[1,5-a]pyridin-3-yl)propan-2-yl)-4-(tetrahydro-2H-pyran-4-carbonyl)piperazine-2-carboxamide], which EC50 [1] is on record?
Answer: 6500 nM

Question: For CN1CCNC[C@H]1C(=O)NC(C)(C)c1ncc2c(Cl)cccn12 [SC-104, (S)-N-(2-(8-chloroimidazo[1,5-a]pyridin-3-yl)propan-2-yl)-1-methylpiperazine-2-carboxamide], which EC50 [1] is on record?
Answer: 0.9 nM

Question: How did the EC50 [1] turn out when Cn1cc(CN2CCNC[C@H]2C(=O)NC(C)(C)c2ncc3c(C4CC4)cccn23)cn1 [SC-120, (S)-N-(2-(8-cyclopropylimidazo[1,5-a]pyridin-3-yl)propan-2-yl)-1-((1-methyl-1H-pyrazol-4-yl)methyl)piperazine-2-carboxamide] was run?
Answer: 53 nM

Question: Which EC50 [1] does the source give for Cc1ccc(CN2CCNC[C@H]2C(=O)NC(C)(C)c2ncc3c(C)cccn23)cn1 [SC-088, (S)-N-(2-(8-methylimidazo[1,5-a]pyridin-3-yl)propan-2-yl)-1-((6-methylpyridin-3-yl)methyl)piperazine-2-carboxamide] here?
Answer: 0.79 nM
